Reference: patent publication US20030165854A1, “Marker genes responding to treatment with toxins” (priority 2000, published 2003)
Read-outs that look alike come from different tables or passages of the source.

What was measured:
P450 3A2 = assay: Gene expression (fold change) of known genes in toxin-treated rat liver, cDNA library transcript imaging; type: in vivo; details: clofibrate-treated rat liver, vs untreated liver
P450 4A = details: clofibrate-treated rat liver, vs untreated liver
P450 LA-omega 4A3 = assay: Gene expression (fold change) of known genes in toxin-treated rat liver, cDNA library transcript imaging; details: clofibrate-treated rat liver, vs untreated liver
[1] = test system: rat liver cDNAs SEQ ID NOs: 62-202; assay: Abundance of cDNA clones in toxin-treated rat liver cDNA libraries (transcript imaging), Sprague-Dawley; type: in vivo; details: Strain SD
Method: Columns 1 and 2 show the SEQ ID NO and Clone ID of the rat cDNA clone, respectively.
Abundance of a clone was determined by counting the number of clones present in a master cluster.
Abundance of a particular cDNA in the library profile was determined by summing the total number of copies of the clones present in the master cluster in that library.

[2] = test system: rat liver cDNAs SEQ ID NOs: 1-61; type: in vivo, Han/Wistar rat; details: Strain HW

CCOC(=O)C(C)(C)Oc1ccc(Cl)cc1 [clofibrate]
Gene expression (fold change) P450 3A2 (P450 3A2; 12 hours): 0.14 fold change | Gene expression (fold change) P450 3A2 (P450 3A2; 24 hours): 1.2 fold change | Gene expression (fold change) P450 3A2 (P450 3A2; 3 days): 0.63 fold change | Gene expression (fold change) P450 3A2 (P450 3A2; 7 days): 0.50 fold change | Gene expression (fold change) P450 3A2 (P450 3A2; 28 days): 0.45 fold change | Gene expression (fold change) P450 4A (P450 4A; 12 hours): 7.0 fold change | Gene expression (fold change) P450 4A (P450 4A; 24 hours): 16.6 fold change | Gene expression (fold change) P450 4A (P450 4A; 3 days): 1.4 fold change | Gene expression (fold change) P450 4A (P450 4A; 7 days): 0.5 fold change | Gene expression (fold change) P450 4A (P450 4A; 28 days): 1.3 fold change | Gene expression (fold change) P450 LA-omega 4A3 (P450 LA-omega 4A3; 12 hours): 14.8 fold change | Gene expression (fold change) P450 LA-omega 4A3 (P450 LA-omega 4A3; 24 hours): 26.6 fold change | Gene expression (fold change) P450 LA-omega 4A3 (P450 LA-omega 4A3; 3 days): 1.1 fold change | Gene expression (fold change) P450 LA-omega 4A3 (P450 LA-omega 4A3; 7 days): 0.5 fold change | Gene expression (fold change) P450 LA-omega 4A3 (P450 LA-omega 4A3; 28 days): 0.47 fold change | Maximum Abundance, SEQ ID NO 110, Clone ID 700192259 [1]: 5 | Maximum Abundance, SEQ ID NO 111, Clone ID 700269330 [1]: 4 | Maximum Abundance, SEQ ID NO 112, Clone ID 701317696 [1]: 5 | Maximum Abundance, SEQ ID NO 163, Clone ID 700025278 [1]: 4 | Maximum Abundance, SEQ ID NO 164, Clone ID 700122008 [1]: 6 | Maximum Abundance, SEQ ID NO 165, Clone ID 700136662 [1]: 3 | Maximum Abundance, SEQ ID NO 166, Clone ID 700144043 [1]: 4 | Maximum Abundance, SEQ ID NO 167, Clone ID 700177423 [1]: 3 | Maximum Abundance, SEQ ID NO 168, Clone ID 700247621 [1]: 4 | Maximum Abundance, SEQ ID NO 169, Clone ID 700251379 [1]: 3 | Maximum Abundance, SEQ ID NO 170, Clone ID 700272988 [1]: 5 | Maximum Abundance, SEQ ID NO 171, Clone ID 700306859 [1]: 3 | Maximum Abundance, SEQ ID NO 172, Clone ID 700307013 [1]: 3 | Maximum Abundance, SEQ ID NO 173, Clone ID 700323707 [1]: 4 | Maximum Abundance, SEQ ID NO 174, Clone ID 700513589 [1]: 4 | Maximum Abundance, SEQ ID NO 175, Clone ID 700538641 [1]: 3 | Maximum Abundance, SEQ ID NO 176, Clone ID 700592657 [1]: 3 | Maximum Abundance, SEQ ID NO 177, Clone ID 701190918 [1]: 3 | Maximum Abundance, SEQ ID NO 178, Clone ID 701313456 [1]: 3 | Maximum Abundance, SEQ ID NO 179, Clone ID 701397319 [1]: 3 | Maximum Abundance, SEQ ID NO 180, Clone ID 701429135 [1]: 6 | Maximum Abundance, SEQ ID NO 181, Clone ID 701429654 [1]: 3 | Maximum Abundance, SEQ ID NO 182, Clone ID 701458841 [1]: 3 | Maximum Abundance, SEQ ID NO 183, Clone ID 701470083 [1]: 3 | Maximum Abundance, SEQ ID NO 184, Clone ID 701562608 [1]: 3 | Maximum Abundance, SEQ ID NO 185, Clone ID 701884534 [1]: 5 | Maximum Abundance, SEQ ID NO 186, Clone ID 700068662 [1]: 6 | Maximum Abundance, SEQ ID NO 187, Clone ID 700933309 [1]: 5 | Maximum Abundance, SEQ ID NO 201, Clone ID 700062503 [1]: 3 | Maximum Abundance, SEQ ID NO 113, Clone ID 700230724 ([1]; Sex F): 4 | Maximum Abundance, SEQ ID NO 114, Clone ID 700307025 ([1]; Sex F): 4 | Maximum Abundance, SEQ ID NO 115, Clone ID 700361295 ([1]; Sex F): 3 | Maximum Abundance, SEQ ID NO 116, Clone ID 700420930 ([1]; Sex F): 3 | Maximum Abundance, SEQ ID NO 117, Clone ID 700526706 ([1]; Sex F): 3 | Maximum Abundance, SEQ ID NO 118, Clone ID 700635732 ([1]; Sex F): 3 | Maximum Abundance, SEQ ID NO 119, Clone ID 700824178 ([1]; Sex F): 3 | Maximum Abundance, SEQ ID NO 120, Clone ID 701396706 ([1]; Sex F): 4 | Maximum Abundance, SEQ ID NO 121, Clone ID 701475987 ([1]; Sex F): 3 | Maximum Abundance, SEQ ID NO 122, Clone ID 701621131 ([1]; Sex F): 3 | Maximum Abundance, SEQ ID NO 123, Clone ID 701879551 ([1]; Sex F): 3 | Maximum Abundance, SEQ ID NO 124, Clone ID 701883446 ([1]; Sex F): 3 | Maximum Abundance, SEQ ID NO 125, Clone ID 701883859 ([1]; Sex F): 3 | Maximum Abundance, SEQ ID NO 188, Clone ID 700024288 ([1]; Sex F): 2 | Maximum Abundance, SEQ ID NO 189, Clone ID 700064545 ([1]; Sex F): 3 | Maximum Abundance, SEQ ID NO 190, Clone ID 700066933 ([1]; Sex F): 2 | Maximum Abundance, SEQ ID NO 191, Clone ID 700146747 ([1]; Sex F): 3 | Maximum Abundance, SEQ ID NO 192, Clone ID 700589657 ([1]; Sex F): 3 | Maximum Abundance, SEQ ID NO 193, Clone ID 700858043 ([1]; Sex F): 1 | Maximum Abundance, SEQ ID NO 109, Clone ID 700250903 ([1]; Sex M): 11 | Maximum Abundance, SEQ ID NO 126, Clone ID 700122019 ([1]; Sex M): 4 | Maximum Abundance, SEQ ID NO 127, Clone ID 700276321 ([1]; Sex M): 4 | Maximum Abundance, SEQ ID NO 128, Clone ID 700323126 ([1]; Sex M): 3 | Maximum Abundance, SEQ ID NO 129, Clone ID 700324604 ([1]; Sex M): 3 | Maximum Abundance, SEQ ID NO 130, Clone ID 700363120 ([1]; Sex M): 3 | Maximum Abundance, SEQ ID NO 131, Clone ID 700364810 ([1]; Sex M): 3 | Maximum Abundance, SEQ ID NO 132, Clone ID 700510701 ([1]; Sex M): 4 | Maximum Abundance, SEQ ID NO 133, Clone ID 700810877 ([1]; Sex M): 5 | Maximum Abundance, SEQ ID NO 134, Clone ID 700928985 ([1]; Sex M): 6 | Maximum Abundance, SEQ ID NO 135, Clone ID 700931410 ([1]; Sex M): 4 | Maximum Abundance, SEQ ID NO 136, Clone ID 701093657 ([1]; Sex M): 4 | Maximum Abundance, SEQ ID NO 137, Clone ID 701259518 ([1]; Sex M): 3 | Maximum Abundance, SEQ ID NO 138, Clone ID 701264516 ([1]; Sex M): 4 | Maximum Abundance, SEQ ID NO 139, Clone ID 701341715 ([1]; Sex M): 4 | Maximum Abundance, SEQ ID NO 140, Clone ID 701434939 ([1]; Sex M): 4 | Maximum Abundance, SEQ ID NO 141, Clone ID 701460429 ([1]; Sex M): 3 | Maximum Abundance, SEQ ID NO 142, Clone ID 701463285 ([1]; Sex M): 4 | Maximum Abundance, SEQ ID NO 143, Clone ID 701605992 ([1]; Sex M): 4 | Maximum Abundance, SEQ ID NO 144, Clone ID 701737185 ([1]; Sex M): 3 | Maximum Abundance, SEQ ID NO 145, Clone ID 701737221 ([1]; Sex M): 4 | Maximum Abundance, SEQ ID NO 146, Clone ID 701920170 ([1]; Sex M): 3 | Maximum Abundance, SEQ ID NO 147, Clone ID 701922204 ([1]; Sex M): 3 | Maximum Abundance, SEQ ID NO 148, Clone ID 701922375 ([1]; Sex M): 4 | Maximum Abundance, SEQ ID NO 149, Clone ID 701922439 ([1]; Sex M): 4 | Maximum Abundance, SEQ ID NO 150, Clone ID 701922513 ([1]; Sex M): 4 | Maximum Abundance, SEQ ID NO 151, Clone ID 701922576 ([1]; Sex M): 4 | Maximum Abundance, SEQ ID NO 152, Clone ID 701922583 ([1]; Sex M): 3 | Maximum Abundance, SEQ ID NO 153, Clone ID 701922711 ([1]; Sex M): 3 | Maximum Abundance, SEQ ID NO 154, Clone ID 701922744 ([1]; Sex M): 4 | Maximum Abundance, SEQ ID NO 155, Clone ID 701922971 ([1]; Sex M): 3 | Maximum Abundance, SEQ ID NO 156, Clone ID 701923019 ([1]; Sex M): 5 | Maximum Abundance, SEQ ID NO 157, Clone ID 701923022 ([1]; Sex M): 3 | Maximum Abundance, SEQ ID NO 158, Clone ID 701923218 ([1]; Sex M): 4 | Maximum Abundance, SEQ ID NO 159, Clone ID 701923240 ([1]; Sex M): 4 | Maximum Abundance, SEQ ID NO 160, Clone ID 701923241 ([1]; Sex M): 3 | Maximum Abundance, SEQ ID NO 161, Clone ID 701923330 ([1]; Sex M): 3 | Maximum Abundance, SEQ ID NO 162, Clone ID 701925484 ([1]; Sex M): 4 | Maximum Abundance, SEQ ID NO 194, Clone ID 700060595 ([1]; Sex M): 3 | Maximum Abundance, SEQ ID NO 195, Clone ID 700061212 ([1]; Sex M): 3 | Maximum Abundance, SEQ ID NO 196, Clone ID 700062747 ([1]; Sex M): 2 | Maximum Abundance, SEQ ID NO 197, Clone ID 700124248 ([1]; Sex M): 3 | Maximum Abundance, SEQ ID NO 198, Clone ID 700252787 ([1]; Sex M): 3 | Maximum Abundance, SEQ ID NO 199, Clone ID 700272719 ([1]; Sex M): 3 | Maximum Abundance, SEQ ID NO 200, Clone ID 700282789 ([1]; Sex M): 3 | Maximum Abundance, SEQ ID NO 9, Clone ID 700308908 [2]: 6 | Maximum Abundance, SEQ ID NO 11, Clone ID 700131403 [2]: 4 | Maximum Abundance, SEQ ID NO 10, Clone ID 700139239 ([2]; Sex M): 4
